Results as given in ChEMBL document CHEMBL4184119, “Identification of 2-thioxoimidazolidin-4-one derivatives as novel noncovalent proteasome and immunoproteasome inhibitors” (Bioorg Med Chem Lett, 2018).
The source made the active and inactive calls. The rule behind the calls is not given here.

Legend:
[1] = Growth inhibition of human MM1R cells after 24 hrs by MTT assay; type: functional; settings: MM.1R
[2] = biological target: Proteasome Macropain subunit (Homo sapiens) (UniProt P49721); assay: Inhibition of 20s immunoproteasome beta2 trypsin-like activity in human spleen using Boc-Leu-Arg-Arg-AMC as substrate at 50 uM after 10 mins by fluorescence assay relative to control
[3] = biological target: T1, Proteasome Macropain subunit MB1 (Homo sapiens) (UniProt P28074); assay: Inhibition of 20s constitutive proteasome beta5 chymotrypsin-like activity in human erythrocytes using Suc-Leu-Leu-Val-Tyr-AMC as substrate at 50 uM after 10 mins by fluorescence assay relative to control; type: cell-based
T1 sequence (whole entry): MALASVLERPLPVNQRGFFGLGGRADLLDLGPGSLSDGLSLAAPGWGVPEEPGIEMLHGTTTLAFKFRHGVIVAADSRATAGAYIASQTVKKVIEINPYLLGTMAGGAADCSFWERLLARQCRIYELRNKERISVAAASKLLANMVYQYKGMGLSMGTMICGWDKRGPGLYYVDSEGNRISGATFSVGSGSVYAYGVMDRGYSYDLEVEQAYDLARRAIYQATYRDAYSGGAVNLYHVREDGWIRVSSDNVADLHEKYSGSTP

[4] = biological target: T2, Proteasome component C5 (Homo sapiens) (UniProt P20618); assay: Inhibition of 20s constitutive proteasome beta1 caspase-like activity in human erythrocytes using Z-Leu-Leu-Glu-AMC as substrate at 50 uM after 10 mins by fluorescence assay relative to control; type: cell-based
T2 sequence (whole entry): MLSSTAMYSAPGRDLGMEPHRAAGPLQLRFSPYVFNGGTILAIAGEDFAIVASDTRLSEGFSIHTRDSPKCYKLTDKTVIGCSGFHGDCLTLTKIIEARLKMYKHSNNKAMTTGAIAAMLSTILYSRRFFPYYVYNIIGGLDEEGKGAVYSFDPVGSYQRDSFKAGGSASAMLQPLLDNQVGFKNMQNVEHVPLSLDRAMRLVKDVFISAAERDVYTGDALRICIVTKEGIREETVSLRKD

[5] = biological target: Proteasome Macropain subunit (Homo sapiens) (UniProt P49721); assay: Inhibition of 20s constitutive proteasome beta2 trypsin-like activity in human erythrocytes using Boc-Leu-Arg-Arg-AMC as substrate at 50 uM after 10 mins by fluorescence assay relative to control; type: cell-based
[6] = biological target: T1, Proteasome Macropain subunit MB1 (Homo sapiens); assay: Inhibition of 20s immunoproteasome beta5 chymotrypsin-like activity in human spleen using Suc-Leu-Leu-Val-Tyr-AMC as substrate at 50 uM after 10 mins by fluorescence assay relative to control
[7] = biological target: T3, Proteasome Macropain subunit MB1 (Homo sapiens, UniProt P28074); assay: Inhibition of 20s constitutive proteasome beta5 chymotrypsin-like activity in human erythrocytes using Suc-Leu-Leu-Val-Tyr-AMC as substrate after 10 mins by fluorescence assay
T3 sequence (P28074 whole entry): T1 sequence (whole entry)

[8] = biological target: T1, Proteasome Macropain subunit MB1 (Homo sapiens); assay: Selectivity ratio of inhibitory concentration for 20s constitutive proteasome beta5 chymotrypsin-like activity in human erythrocytes to Ki for 20s immunoproteasome beta5 chymotrypsin-like activity in human spleen; type: cell-based
[9] = biological target: T1, Proteasome Macropain subunit MB1 (Homo sapiens); assay: Reversible inhibition of 20s constitutive proteasome beta5 chymotrypsin-like activity in human erythrocytes using Suc-Leu-Leu-Val-Tyr-AMC as substrate at 50 uM preincubated for 30 mins followed by compound dilution measured after 30 mins by fluorescence assay; type: cell-based

Sequence of Proteasome Macropain subunit (Homo sapiens) (P49721 whole entry): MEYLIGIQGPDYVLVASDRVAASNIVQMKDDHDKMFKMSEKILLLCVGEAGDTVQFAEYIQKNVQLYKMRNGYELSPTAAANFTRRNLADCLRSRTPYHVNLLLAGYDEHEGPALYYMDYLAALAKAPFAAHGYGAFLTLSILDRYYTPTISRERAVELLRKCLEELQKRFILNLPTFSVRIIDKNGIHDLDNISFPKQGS

CC(C)CC(NC(=O)[C@H](CC(C)C)NC(=O)OCc1ccccc1)C(=O)N[C@H](C=O)CC(C)C (single isomer, unassigned) [MG-132]
IC50 [1]: 14.4 µM

COc1ccc(/C=C2\NC(=S)N(c3ccccc3)C2=O)cc1
inhibition [2]: 29% | IC50 [1]: 19.4 µM | inhibition [3]: 45% | inhibition [4]: 56% | inhibition [5]: 35%

O=C1/C(=C/c2ccc(Oc3ccccc3)cc2)NC(=S)N1c1cccc2ccccc12
inhibition [3]: 20% | inhibition [6]: 56% | inhibition [5]: 57%

COc1cccc(/C=C2\NC(=S)N(c3ccccc3)C2=O)c1
inhibition [2]: 18% | IC50 [1]: 25.9 µM | inhibition [4]: 52% | inhibition [5]: 36% | Ki [7]: 17.9 µM

O=C1/C(=C/c2ccc(Oc3ccccc3)cc2)NC(=S)N1c1ccccc1
inhibition [2]: 53% | inhibition [3]: 13% | inhibition [4]: inactive | inhibition [6]: 58% | inhibition [5]: 5%

COc1ccc(/C=C2\NC(=S)N(c3ccccc3)C2=O)cc1O
inhibition [2]: 45% | IC50 [1]: 40.7 µM | inhibition [3]: 45% | inhibition [4]: 28% | Ratio [8]: 20 | inhibition [5]: 37%

COc1ccc(/C=C2\NC(=S)N(c3ccccc3)C2=O)cc1OC
inhibition [2]: 50% | inhibition [9]: Active | IC50 [1]: 36.7 µM | inhibition [4]: 58% | Ratio [8]: 7 | inhibition [5]: 29% | Ki [7]: 13.6 µM

O=C1/C(=C/c2cccc(Oc3ccccc3)c2)NC(=S)N1c1ccccc1
inhibition [2]: 32% | inhibition [3]: 39% | inhibition [4]: inactive | inhibition [6]: 56% | inhibition [5]: inactive

COc1cc(/C=C2\NC(=S)N(c3ccccc3)C2=O)ccc1O
IC50 [1]: 20.2 µM | inhibition [4]: 54% | inhibition [5]: 32% | Ki [7]: 23.6 µM

CSc1ccc(/C=C2\NC(=S)N(c3ccccc3)C2=O)cc1
inhibition [3]: 28% | inhibition [4]: 59% | inhibition [6]: 50%

O=C1CNC(=S)N1c1cccc2ccccc12
inhibition [2]: inactive | inhibition [3]: inactive | inhibition [4]: 47% | inhibition [6]: inactive | inhibition [5]: 38%

O=C1CNC(=S)N1c1ccccc1
inhibition [2]: inactive | inhibition [3]: 47% | inhibition [4]: 32% | inhibition [6]: 53% | inhibition [5]: inactive
